Measurements from patent US11571459B2, “Methods for treating cancer using PS-targeting antibodies with immuno-oncology agents” (ONCXERNA THERAPEUTICS, INC., priority 2017, dated 2023).

Tests used:
[1] = test system: previously untreated stage IV pancreatic cancer; assay: Phase II (PPHM 1002) gemcitabine with or without bavituximab; format: in vivo, human; details: for median overall survival: at study closure
Experimental: The primary objective was to compare the OS of patients among the treatment arms. Secondary objectives included comparing PFS, ORR, DR and safety.
Gemcitabine (1000 mg/m^2) was given on days 1, 8, and 15 of each 28-day cycle (4 weeks) until disease progression or unacceptable toxicities. A total of 70 patients were enrolled to the study. In general, the patient population had very extensive disease burden, which may have reduced the response in both arms.
The levels of pre-treatment functional β2GPI ranged from 82.5 to 343.2 μg/ml for all patients. For these 31 patients, the mean level of pre-treatment functional β2GPI (219.2 μg/ml) was consistent with the average reported in the literature.

[2] = test system: previously-treated Stage IIIb/IV non-squamous NSCLC; assay: Phase III trial of bavituximab plus docetaxel in NSCLC
Excerpt: This global, double-blind Phase III trial was initiated in 2012. Selection criteria were for patients with Stage IIIb/IV non-squamous NSCLC who progressed on platinum-doublet chemotherapy (should have progressed on appropriate targeted therapy if known EGFR or ALK mutation), with ECOG PS 0-1 and prior immunotherapy allowed (ECOG is the performance status scale defined by the Eastern Cooperative Oncology Group). […] The primary endpoint was overall survival (OS) and secondary endpoints included objective response rate (Independent Central Review, ICR), progression-free survival (ICR), safety, PK, Quality of Life (LCSS) and exploratory biomarkers, including immune correlates.
OS was analyzed by VeriStrat subgroups using Kaplan-Meier statistical methods.
A single cutoff method was first used to assess the patient β2GPI data.
The initial analyses described above prompted further, extensive analyses of the data in 592 evaluable patients. These analyses used a two cutoff method (Klein & Moeschberger, 2003).
Archival tissue obtained at the time of diagnosis was requested, but not required, in the Phase III trial of Example X. Formalin-fixed paraffin-embedded (FFPE) slides were stained with antibodies for a panel of lymphoid (or tumor) cell markers, as described in Feng et al., 2015: CD3+, CD8+, FoxP3+, PD-L1+, CD163+ and CK+ (cytokeratin, an epithelial carcinoma marker) using a mutliplex (6-plex) quantitative immunohistochemistry (IHC) assay (OPAL®, PerkinElmer, Waltham, Mass., USA) and using DAPI. The PD-L1 antibody used was the rabbit anti-PD-L1 antibody termed E1L3N® XP® (Cell Signaling Technology, (CST), Danvers, Mass., Catalogue #13684; Mahoney et al., 2015). Baseline PD-L1 expression was retrospectively scored on tumor cells (TC, i.e., CK+) and PD-L1 expressing tumor cells were classified according to their percentage within the total number of tumor cells using established assays and classifications (Fehrenbacher et al., 2016), as follows: TC3≥50%; TC2≥5% and ≤50%; TC1≥1% and <5%; and TC0<1%. Cox regression models for PD-L1 IHC subgroup populations were used for correlation with OS.
Kaplan-Meier statistical methods and Cox proportional hazard models were utilized to evaluate and contrast the correlation of peripheral (and intratumoral) IFNγ levels with OS based on a data cut from the Phase III trial (Example X) dated Feb.

[3] = test system: previously treated non-squamous NSCLC; details: in vivo
Experimental: The primary objective of this study was to compare the ORR (CR+PR) among the treatment arms. Secondary objectives included comparing PFS, DR, OS, safety and PK.
Additional blood draws were performed for these patients during Cycles 1 and 2 at specified time points.
Samples from the NSCLC Phase II trial of Example IX (PPHM 0902) were tested using the functional β2GPI assay of Example XII.

[4] = test system: PS; assay: ELISA binding to PS-coated plates; details: phospholipid-coated ELISA plates
Experimental: The 3G4 antibody was produced by immunizing mice with autologous, PS-positive endothelial cells, as reported in Ran et al., 2005. The 3G4 antibody was tested for binding to PS in a standard ELISA in the presence and absence of serum, and was initially characterized as being “serum-independent”, i.e., an antibody that binds to PS in the absence of serum.
In a follow-on study, the binding of the 2aG4 antibody to PS was tested in an ELISA in the presence of varying concentrations of human β2GPI.
These included binding to PS in ELISAs, FACS analyses using PS-positive cells and functional assays in the form of an NFAT surrogate ADCC bioassay (Larson et al., 2013).

[5] = test system: previously untreated locally advanced or metastatic non-squamous NSCLC; assay: Phase II (PPHM 1001) paclitaxel/carboplatin with or without bavituximab; format: in vivo, human; details: functional β2GPI ≥200 μg/mL; bavituximab given with paclitaxel/carboplatin
[6] = Phase I dose escalation study of bavituximab monotherapy in refractory advanced solid tumors: PK, safety
Experimental: Samples were collected from patients in the 0.1 and 0.3 mg/kg dose cohorts before the study, on days 0, 1, 2, 4, 7, 10, 14, and every 7 days from days 21 to 70. Samples were collected from patients in the 1 and 3 mg/kg dose cohorts before the study, on days 0, 1, 2, 4, 7, 14, 21, 22, 23, 25, and every 7 days from days 28 to 56.

[7] = biological target: T1, functional β2GPI (Homo sapiens, UniProt P02749); assay: Functional β2GPI assay (PS-coated plate, bavituximab-HRP); format: binding; details: for concentration read out in functional β2GPI assay: recombinant or plasma-derived β2GPI; for Conc. (ng/mL) read out in Functional β2GPI Assay: PS-coated plate, bavituximab-HRP, nicked vs intact β2GPI samples
T1 construct: Samples of β2GPI purified from human plasma and recombinant human β2GPI were both treated with plasmin; from tissue; host or cells: human plasma / serum
T1 sequence (P02749 20-345): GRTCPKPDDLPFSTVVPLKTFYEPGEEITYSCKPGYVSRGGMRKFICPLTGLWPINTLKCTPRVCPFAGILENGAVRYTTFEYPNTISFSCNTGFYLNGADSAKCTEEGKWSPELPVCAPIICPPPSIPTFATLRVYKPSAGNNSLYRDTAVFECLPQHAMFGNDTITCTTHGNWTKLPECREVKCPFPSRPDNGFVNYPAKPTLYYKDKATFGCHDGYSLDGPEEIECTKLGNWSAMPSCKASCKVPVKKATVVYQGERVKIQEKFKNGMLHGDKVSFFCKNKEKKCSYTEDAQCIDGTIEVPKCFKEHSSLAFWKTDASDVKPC
Excerpt: The following particular materials and equipment were used in the assay to generate the Results presented in this example under Sections B1 and B2. Materials: 96-well medium binding flat bottom plates (Greiner BioOne, cat #655001); 96-well non-binding round bottom plates (Costar, cat #3605); hexane (Sigma, cat #32293); PS antigen (Sigma, cat #P6641); ovalbumin (Sigma, cat #A5503); chromogenic substrate, tetramethylbenzidine (TMB), (KPL, cat #50-76-00); 2M H2SO4 (Fisher, Cat #SA818-4); plate covers (Fisher 015-027-11); adhesive plate sealer (VWR 232701); reagent reservoirs (VistaLab Cat #3054-1000). 1.5 mL microcentrifuge tubes, 50 mL conical tubes and 15 mL conical tubes were also utilized.
The Wash Buffer is IX phosphate-buffered saline (PBS) and the Blocking Buffer is 2% Ovalbumin in IX PBS.
The bavituximab antibody was conjugated to horseradish peroxidase (HRP) to prepare a bavituximab-HRP detection agent for use in the assay. The conjugation was performed using EZ-Link® Plus Activated Peroxidase (Thermo Scientific, Cat #31487) following the procedure for conjugating activated peroxidase to an antibody at pH 7.2 provided by the manufacturer. […] This was added to 1 mg of lyophilized EZ-Link Plus activated peroxidase to reconstitute. Immediately following reconstitution, 10 μL of 5M sodium cyanoborohydride solution was added to the reaction and incubated for 1 hour at room temperature. Once incubation was completed, 20 μL of quenching buffer was added and incubated for 15 minutes at room temperature. Conjugated bavituximab-HRP (1 mg/mL) was stored at 4° C. for up to 4 weeks.
The ELISA plates were coated with the PS antigen as follows: 5 μg/mL PS antigen was prepared and diluted into 6 mL of hexane in a fume hood with the blower off. 50 μL of PS solution was added to each well using a 12-channel pipette. The fume hood blower was turned back on and the hexane allowed to evaporate for 30-45 minutes, typically 30 minutes.
The PS-coated ELISA plates were blocked as follows: 100 mL per plate of the Blocking Buffer (2% Ovalbumin in IX PBS) was prepared. 200 μL of Blocking Buffer was added to each well using a 12-channel pipette.
The β2GPI standards for the positive control were obtained from Haematologic Technologies, Inc. (HTI; cat #B2G1-0001-C; 1.0 mg/ml) in a buffer of 0.2 M Glycine, 0.15 M NaCl, pH 7.4. […]

[8] = 70% of targeted OS events reached
[9] = about 85% of targeted OS events

Nc1ccn([C@@H]2O[C@H](CO)[C@@H](O)C2(F)F)c(=O)n1 [gemcitabine, reference compound]
median overall survival [1]: 5.2 months

CC(=O)O[C@@]12CO[C@@H]1C[C@H](O)[C@@]1(C)C(=O)[C@H](O)C3=C(C)[C@@H](OC(=O)[C@H](O)[C@@H](NC(=O)OC(C)(C)C)c4ccccc4)C[C@@](O)([C@@H](OC(=O)c4ccccc4)[C@H]21)C3(C)C [docetaxel, reference compound]
median OS ([2]; 12 months follow-up, about 85% of targeted OS events): 10.9 months
mOS [2, 8]: 10.8 months
median PFS [2, 8]: 3.9 months
mOS ([2]; IFNγ high, no subsequent IO): 9.2 months
mOS ([2]; IFNγ high, received subsequent IO): 13.5 months
mOS ([2]; IFNγ low, no subsequent IO): 10.8 months
mOS ([2]; IFNγ low, received subsequent IO): 12.1 months
mOS ([2]; VS Good patients (VeriStrat)): 11.8 months
mOS ([2]; VS Poor patients (VeriStrat)): 4.7 months
Grade 3 or higher adverse events [2, 9]: 60%
ORR [2, 9]: 11%
PFS [2, 9]: 4.1 months
mOS ([2]; functional β2GPI 200-240 μg/mL): 7.7 months
mOS ([2]; functional β2GPI ≥200 μg/mL, 578 evaluable patients): 9.4 months
mOS ([2]; functional β2GPI ≥200 μg/mL, 592 evaluable patients): 10.1 months
mOS ([2]; functional β2GPI ≥200 μg/mL, with subsequent IO): 12.3 months
mOS ([2]; functional β2GPI ≥200 μg/mL, without subsequent IO): 9.2 months
mOS ([2]; higher PD-L1 expression (TC1/2/3, ≥1%)): 10.4 months
HR, PD-L1 TC0 versus TC1/2/3 within arm ([2]; in vivo): 0.93
mOS ([2]; negative PD-L1 expression (TC0, <1%)): 11.1 months
mOS ([2]; patients receiving subsequent IO): 12.6 months
mOS ([2]; patients who did not receive subsequent IO): 10.2 months
mOS ([2]; pre-treatment serum IFNγ high (≥ median 0.093 μg/mL)): 10.6 months
mOS ([2]; pre-treatment serum IFNγ low (< median 0.093 μg/mL)): 11.1 months
mOS ([2]; β2GPI less than 200 μg/mL, with subsequent IO): 18.6 months
mOS ([2]; β2GPI less than 200 μg/mL, without subsequent IO): 11.6 months
pharmacokinetic drug-drug interaction [3]: exhibited similar pharmacokinetic characteristics with or without the administration of bavituximab

2aG4: mouse IgG2a chimeric version of the 3G4 antibody
binding to phospholipids in standard ELISA [4]: essentially the same affinity and binding profile as the 3G4 antibody

bavituximab plus gemcitabine: treatment arm: gemcitabine with weekly 3 mg/kg bavituximab
median overall survival [1]: 5.6 months
TEAE anemia ([1]; in vivo): 35.3%
TEAE fatigue, constipation and anorexia (each) ([1]; in vivo): 32.4%
TEAE nausea ([1]; in vivo): 44.1%
response rate and survival probability at 1 year compared with gemcitabine only ([1]; in vivo): numerically higher response rate and survival probability at 1 year

paclitaxel/carboplatin [reference compound]
mOS [5]: 13.2 months

Bavi
Bavi ([6]; Cmax at 3 mg/kg expressed as molar concentration): 0.389 µM
Cmax ([6]; bavituximab 3 mg/kg, maximum concentration in blood (Example II; Gerber et al., 2011)): 56.4 µg/mL

B1: β2GPI: plasmin-free (intact) β2GPI purified from human plasma or recombinant (protein)
chain: T1 sequence (P02749 20-345)
concentration read out in functional β2GPI assay [7]: ~136 ng/mL

B2: plasmin-treated β2GPI: β2GPI treated with plasmin, majority nicked, does not bind PS (protein)
chain: T1 sequence (P02749 20-345)
concentration read out in functional β2GPI assay [7]: 33 ng/mL

B3: Human Plasmin-free β2GPI (protein, UniProt P02749 20-345, looked up)
Beta-2-glycoprotein 1: T1 sequence (P02749 20-345)
modifications: plasmin-free
Conc. (ng/mL) read out in Functional β2GPI Assay [7]: 136.42 ng/mL

B4: Recombinant Plasmin-free β2GPI (protein, UniProt P02749 20-345, looked up)
Beta-2-glycoprotein 1: T1 sequence (P02749 20-345)
modifications: recombinant, plasmin-free
Conc. (ng/mL) read out in Functional β2GPI Assay [7]: 136.42 ng/mL
